Measurements reported in PubChem BioAssay AID1963831 (Molecular Pharmacology Branch, DTP, NCI, 2024).

Test system: 889142-216-R-J1-PDC complex spheroid viability
Assay: Anticancer human tumor 889142-216-R-J1-PDC patient-derived bladder carcinoma cell line growth inhibition [POLQ]
Conditions: for IC50: curve of first compound; for viability, T/C: stronger effect = lower value
Procedure, shortened: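 Complex spheroid viability model combining PDC tumour cells with endothelial (HUVEC) and MSC stromal cells. Novobiocin, ART-558 or RP6685 were tested singly and in combination with standard and investigational anticancer drugs. Each was titrated in half-log steps from near clinical Cmax, or from 10 microM where Cmax was unknown.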

[1] = second compound 0.0316 µM, first compound 0.0316 µM
[2] = second compound 0.0316 µM, first compound 0.1 µM
[3] = second compound 0.0316 µM, first compound 0.316 µM
[4] = second compound 0.0316 µM, first compound 1 µM
[5] = second compound 0.0316 µM, first compound 3.16 µM
[6] = second compound 0.0316 µM, first compound 10 µM
[7] = second compound 0.1 µM, first compound 0.0316 µM
[8] = second compound 0.1 µM, first compound 0.1 µM
[9] = second compound 0.1 µM, first compound 0.316 µM
[10] = second compound 0.1 µM, first compound 1 µM
[11] = second compound 0.1 µM, first compound 3.16 µM
[12] = second compound 0.1 µM, first compound 10 µM
[13] = second compound 0.316 µM, first compound 0.0316 µM
[14] = second compound 0.316 µM, first compound 0.1 µM
[15] = second compound 0.316 µM, first compound 0.316 µM
[16] = second compound 0.316 µM, first compound 1 µM
[17] = second compound 0.316 µM, first compound 3.16 µM
[18] = second compound 0.316 µM, first compound 10 µM
[19] = second compound 1 µM, first compound 0.0316 µM
[20] = second compound 1 µM, first compound 0.1 µM
[21] = second compound 1 µM, first compound 0.316 µM
[22] = second compound 1 µM, first compound 1 µM
[23] = second compound 1 µM, first compound 3.16 µM
[24] = second compound 1 µM, first compound 10 µM
[25] = second compound 3.16 µM, first compound 0.0316 µM
[26] = second compound 3.16 µM, first compound 0.1 µM
[27] = second compound 3.16 µM, first compound 0.316 µM
[28] = second compound 3.16 µM, first compound 1 µM
[29] = second compound 3.16 µM, first compound 3.16 µM
[30] = second compound 3.16 µM, first compound 10 µM
[31] = second compound 10 µM, first compound 0.0316 µM
[32] = second compound 10 µM, first compound 0.1 µM
[33] = second compound 10 µM, first compound 0.316 µM
[34] = second compound 10 µM, first compound 1 µM
[35] = second compound 10 µM, first compound 3.16 µM
[36] = second compound 10 µM, first compound 10 µM
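Further: spheroids exposed to compounds for seven days.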
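Wherever viability, T/C is given: 100% = DMSO vehicle control viability.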

SMILES: COc1ccc([C@@H](O)c2cc(-c3ncnc4cc(N5CCOCC5)ccc34)c(F)cc2Cl)nn1 + COC1C(OC(N)=O)C(O)C(Oc2ccc3c(O)c(NC(=O)c4ccc(O)c(CC=C(C)C)c4)c(=O)oc3c2C)OC1(C)C
- IC50 (second compound 0.0316 µM): 4.25 µM
- IC50 (second compound 0.1 µM): > 10 µM
- IC50 (second compound 0.316 µM): 6.29 µM
- IC50 (second compound 1 µM): 2.87 µM
- IC50 (second compound 3.16 µM): 3.64 µM
- IC50 (second compound 10 µM): 4.53 µM
- viability, T/C [1]: 88.8%
- viability, T/C [2]: 88.3%
- viability, T/C [3]: 63.9%
- viability, T/C [4]: 63%
- viability, T/C [5]: 55.6%
- viability, T/C [6]: 41.5%
- viability, T/C [7]: 104%
- viability, T/C [8]: 125%
- viability, T/C [9]: 76.2%
- viability, T/C [10]: 62.7%
- viability, T/C [11]: 55.7%
- viability, T/C [12]: 35.9%
- viability, T/C [13]: 92.2%
- viability, T/C [14]: 104%
- viability, T/C [15]: 87%
- viability, T/C [16]: 79.1%
- viability, T/C [17]: 63.4%
- viability, T/C [18]: 41.4%
- viability, T/C [19]: 90.3%
- viability, T/C [20]: 112%
- viability, T/C [21]: 86.7%
- viability, T/C [22]: 59.8%
- viability, T/C [23]: 60.3%
- viability, T/C [24]: 37.3%
- viability, T/C [25]: 81.3%
- viability, T/C [26]: 120%
- viability, T/C [27]: 77.6%
- viability, T/C [28]: 66.9%
- viability, T/C [29]: 56.9%
- viability, T/C [30]: 39.8%
- viability, T/C [31]: 98.2%
- viability, T/C [32]: 82.1%
- viability, T/C [33]: 104%
- viability, T/C [34]: 74.8%
- viability, T/C [35]: 59.6%
- viability, T/C [36]: 32.9%

SMILES: CC1COCCN1c1cc(C2(S(C)(=N)=O)CC2)nc(-c2ccnc3[nH]ccc23)n1 (stereo unspecified) + Cc1cccc(N(C)C(=O)C2C(O)CCN2c2nc(C)cc(C(F)(F)F)c2C#N)c1
- IC50 (second compound 0.0316 µM): 7.04 µM
- IC50 (second compound 0.1 µM): 10 µM
- IC50 (second compound 0.316 µM): 3.02 µM
- IC50 (second compound 1 µM): 2.27 µM
- IC50 (second compound 3.16 µM): 1.4 µM
- IC50 (second compound 10 µM): 0.966 µM
- viability, T/C [1]: 109%
- viability, T/C [2]: 97.9%
- viability, T/C [3]: 64.5%
- viability, T/C [4]: 76%
- viability, T/C [5]: 49.4%
- viability, T/C [6]: 48.4%
- viability, T/C [7]: 92.9%
- viability, T/C [8]: 128%
- viability, T/C [9]: 82%
- viability, T/C [10]: 58.1%
- viability, T/C [11]: 49.5%
- viability, T/C [12]: 45.8%
- viability, T/C [13]: 128%
- viability, T/C [14]: 97%
- viability, T/C [15]: 85%
- viability, T/C [16]: 65.4%
- viability, T/C [17]: 43.7%
- viability, T/C [18]: 41.8%
- viability, T/C [19]: 111%
- viability, T/C [20]: 106%
- viability, T/C [21]: 70.7%
- viability, T/C [22]: 60.1%
- viability, T/C [23]: 50%
- viability, T/C [24]: 41.5%
- viability, T/C [25]: 92.4%
- viability, T/C [26]: 94.4%
- viability, T/C [27]: 72.3%
- viability, T/C [28]: 53.9%
- viability, T/C [29]: 44.5%
- viability, T/C [30]: 41.5%
- viability, T/C [31]: 85.6%
- viability, T/C [32]: 94.6%
- viability, T/C [33]: 89.4%
- viability, T/C [34]: 48.8%
- viability, T/C [35]: 50.1%
- viability, T/C [36]: 38.8%

SMILES: CCCS(=O)(=O)Nc1ccc(F)c(C(=O)c2c[nH]c3ncc(-c4ccc(Cl)cc4)cc23)c1F + Cc1cccc(N(C)C(=O)C2C(O)CCN2c2nc(C)cc(C(F)(F)F)c2C#N)c1
- IC50 (second compound 0.0316 µM): > 10 µM
- IC50 (second compound 0.1 µM): > 10 µM
- IC50 (second compound 0.316 µM): > 10 µM
- IC50 (second compound 1 µM): 9.29 µM
- IC50 (second compound 3.16 µM): 8.82 µM
- IC50 (second compound 10 µM): 6.13 µM
- viability, T/C [1]: 100%
- viability, T/C [2]: 116%
- viability, T/C [3]: 98.7%
- viability, T/C [4]: 105%
- viability, T/C [5]: 83.5%
- viability, T/C [6]: 50.5%
- viability, T/C [7]: 121%
- viability, T/C [8]: 101%
- viability, T/C [9]: 91%
- viability, T/C [10]: 96.5%
- viability, T/C [11]: 81.3%
- viability, T/C [12]: 48.8%
- viability, T/C [13]: 110%
- viability, T/C [14]: 86.7%
- viability, T/C [15]: 93.3%
- viability, T/C [16]: 91.7%
- viability, T/C [17]: 72.1%
- viability, T/C [18]: 60.5%
- viability, T/C [19]: 94.9%
- viability, T/C [20]: 91.1%
- viability, T/C [21]: 92.7%
- viability, T/C [22]: 90.5%
- viability, T/C [23]: 66.8%
- viability, T/C [24]: 48.9%
- viability, T/C [25]: 101%
- viability, T/C [26]: 96%
- viability, T/C [27]: 81.1%
- viability, T/C [28]: 79.2%
- viability, T/C [29]: 75.2%
- viability, T/C [30]: 44.9%
- viability, T/C [31]: 65.1%
- viability, T/C [32]: 86.2%
- viability, T/C [33]: 90.1%
- viability, T/C [34]: 66.3%
- viability, T/C [35]: 67%
- viability, T/C [36]: 38.5%
